# In US20260167632A1, “NICOTINAMIDE DERIVATIVES FOR USE IN TREATING DISORDERS ASSOCIATED WITH KCNK13 ACTIVITY” (Cerevance, Inc., priority 2022, published 2026):
# Target: T1, human KCNK13 (Homo sapiens, UniProt Q9HB14)
# T1 construct: expressed in transfected cells
# T1 sequence (Q9HB14 1-408): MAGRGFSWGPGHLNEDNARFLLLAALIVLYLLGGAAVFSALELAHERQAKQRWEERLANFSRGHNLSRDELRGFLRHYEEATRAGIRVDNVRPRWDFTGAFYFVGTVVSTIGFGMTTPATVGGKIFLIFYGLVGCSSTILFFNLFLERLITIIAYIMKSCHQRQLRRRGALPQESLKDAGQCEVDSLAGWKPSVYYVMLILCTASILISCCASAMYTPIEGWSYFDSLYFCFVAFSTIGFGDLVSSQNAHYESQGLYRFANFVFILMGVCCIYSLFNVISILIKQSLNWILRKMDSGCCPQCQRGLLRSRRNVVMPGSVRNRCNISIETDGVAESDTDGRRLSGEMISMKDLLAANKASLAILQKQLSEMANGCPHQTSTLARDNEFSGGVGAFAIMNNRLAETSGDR
# Test: KCNK13 antagonist activity, thallium flux FLIPR assay in HEK 293 cells stably expressing human KCNK13
# Assay type: cell-based
# Details: HEK 293 cells stably expressing human KCNK13, Tl+ sensitive dye, compound 15 min before thallium sulfate, ten point curves; read-out: hKCNK13 IC50
# Method: 4. Biological Efficacy of Compounds of the Invention
# KCNK13 antagonist activity was determined by measuring changes in intracellular Thallium (Tl^+) concentrations using a Tl^+ sensitive fluorescent dye. The changes in fluorescent signal were monitored by Fluorescent Imaging Plate Reader (FLIPR™) technology available from Molecular Devices, LLC, US. KCNK13 mediated increases in intracellular Tl^+ concentration were readily detected by addition of a thallium sulfate Stimulus. 24 hours prior to the assay, human embryonic kidney 293 cells (HEK 293 cells) stably expressing human KCNK13 were seeded in cell culture medium in PDL coated black, clear-bottom 384-well plates (commercially available from Corning Inc., 356663) and grown overnight at 37° C., […]. On the day of the assay, cell culture media was removed and cells were loaded with potassium dye (commercially sold by Molecular Devices, LLC, US, R8222) for 1 hour at room temperature in the dark. Test compounds (at 10 point half log concentration response curves from 100 µM) were added to cells for 15 minutes prior to the addition of thallium sulfate to all wells. The IC50 values were determined from ten point concentration response curves. Curves were generated using the average of two wells for each data point.
row,SMILES,IC50 [µM]
1,"Cc1cc(F)cc(CN(C)C(=O)c2cc(Cl)cnc2OC(F)F)c1 [Example 76, 5-chloro-2-(difluoromethoxy)-N-(3-fluoro-5-methylbenzyl)-N-methylnicotinamide]",≤ 0.2
2,"COc1ncc(F)cc1C(=O)N(C)C(C)c1cccc(F)c1 (single isomer, unassigned) [Example 8, 5-fluoro-N-(1-(3-fluorophenyl)ethyl)-2-methoxy-N-methylnicotinamide]",≤ 0.2
3,"CC(c1ccccc1F)N(C)C(=O)c1cc(F)cnc1OC(F)F (single isomer, unassigned) [Example 70, 2-(difluoromethoxy)-5-fluoro-N-(1-(2-fluorophenyl)ethyl)-N-methylnicotinamide]",≤ 0.2
4,"N#Cc1cc(F)ccc1S(=O)(=O)N1CCOc2ccc(F)cc2C1 [Example 120, 5-fluoro-2-((7-fluoro-2,3-dihydrobenzo[f][1,4]oxazepin-4(5H)-yl)sulfonyl)benzonitrile]",≤ 0.2
5,"C[C@@H](c1cccc(F)c1)N(C)S(=O)(=O)c1cc(F)cnc1OC(F)F [Example 105, (S)-2-(difluoromethoxy)-5-fluoro-N-(1-(3-fluorophenyl)ethyl)-N-methylpyridine-3-sulfonamide]",≤ 1
6,"COc1ncccc1C(=O)N(C)Cc1cccc(F)c1 [Example 32, N-(3-fluorobenzyl)-2-methoxy-N-methylnicotinamide]",≤ 1
7,"COc1ncc(F)cc1C(=O)N(C)C1(c2cccc(F)c2)CC1 [Example 34, 5-fluoro-N-(1-(3-fluorophenyl)cyclopropyl)-2-methoxy-N-methylnicotinamide]",≤ 0.5
8,"COc1ncc(Cl)cc1C(=O)N(C)C(C)c1cc(F)ccc1C#N (single isomer, unassigned) [Example 60, 5-chloro-N-(1-(2-cyano-5-fluorophenyl)ethyl)-2-methoxy-N-methylnicotinamide]",≤ 5
9,"CN(Cc1cccc(C#N)c1)S(=O)(=O)c1cc(F)cnc1OC(F)F [Example 106, N-(3-cyanobenzyl)-2-(difluoromethoxy)-5-fluoro-N-methylpyridine-3-sulfonamide]",≤ 0.5
10,"COc1ncc(F)cc1C(=O)N(C)C(C)c1cccc(F)c1 (single isomer, unassigned) [Example 7, 5-fluoro-N-(1-(3-fluorophenyl)ethyl)-2-methoxy-N-methylnicotinamide]",≤ 0.2
11,"COc1ncc(Cl)cc1C(=O)N(C)Cc1ccc(F)cc1C#N [Example 58, 5-chloro-N-(2-cyano-4-fluorobenzyl)-2-methoxy-N-methylnicotinamide]",≤ 0.2
12,"COc1ncccc1C(=O)N(C)Cc1ccccc1F [Example 33, N-(2-fluorobenzyl)-2-methoxy-N-methylnicotinamide]",≤ 0.5
13,"COc1nc(C)ccc1C(=O)N(C)Cc1ccc(F)cc1F [Example 11, N-(2,4-difluorobenzyl)-2-methoxy-N,6-dimethylnicotinamide]",≤ 1
14,"COc1ncc(Cl)cc1C(=O)N(C)C1CCOc2cc(F)ccc21 (centres unmarked) [Example 43, 5-chloro-N-(7-fluorochroman-4-yl)-2-methoxy-N-methylnicotinamide]",≤ 1
15,"CN(C(=O)c1cc(Cl)cnc1OC(F)F)C1COc2c(F)cccc21 (centres unmarked) [Example 92, 5-chloro-2-(difluoromethoxy)-N-(7-fluoro-2,3-dihydrobenzofuran-3-yl)-N-methylnicotinamide]",≤ 0.5
16,"CN(Cc1cccc(F)c1)C(=O)c1cc(F)cnc1OC(F)F [Example 95, 2-(difluoromethoxy)-5-fluoro-N-(3-fluorobenzyl)-N-methylnicotinamide]",≤ 0.1
17,"CN(C(=O)c1cc(F)cnc1OC(F)F)C1COc2c(F)cccc21 (centres unmarked) [Example 75, 2-(difluoromethoxy)-5-fluoro-N-(7-fluoro-2,3-dihydrobenzofuran-3-yl)-N-methylnicotinamide]",≤ 0.5
18,"COc1ncc(Cl)cc1C(=O)N(C)C1CCc2cccc(C#N)c21 (centres unmarked) [Example 3, 5-chloro-N-(7-cyano-2,3-dihydro-1H-inden-1-yl)-2-methoxy-N-methylnicotinamide]",≤ 0.5
19,"COc1cccc(CN(C)C(=O)c2cc(Cl)cnc2OC(F)F)c1 [Example 81, 5-chloro-2-(difluoromethoxy)-N-(3-methoxybenzyl)-N-methylnicotinamide]",≤ 0.2

row,SMILES,IC50 [µM]
1,"CC(c1cccc(F)c1)N(C)C(=O)c1cc(F)cnc1OC(F)F (centres unmarked) [Example 83, 2-(difluoromethoxy)-5-fluoro-N-(1-(3-fluorophenyl)ethyl)-N-methylnicotinamide]",≤ 0.1
2,"CN(Cc1cccc(C#N)c1)C(=O)c1cc(Cl)cnc1OC(F)F [Example 90, 5-chloro-N-(3-cyanobenzyl)-2-(difluoromethoxy)-N-methylnicotinamide]",≤ 0.5
3,"COc1ncc(Cl)cc1C(=O)N(C)Cc1c(F)cccc1F [Example 117, 5-chloro-N-(2,6-difluorobenzyl)-2-methoxy-N-methylnicotinamide]",≤ 0.2
4,"CN(Cc1cccc(F)c1F)C(=O)c1cc(Cl)cnc1OC(F)F [Example 102, 5-chloro-N-(2,3-difluorobenzyl)-2-(difluoromethoxy)-N-methylnicotinamide]",≤ 0.1
5,"COc1ncc(F)cc1C(=O)N(C)Cc1c(F)cc(F)cc1C#N [Example 61, N-(2-cyano-4,6-difluorobenzyl)-5-fluoro-2-methoxy-N-methylnicotinamide]",≤ 1
6,"COc1ncc(F)cc1C(=O)N(C)C(C)c1ccc(F)cc1C#N (single isomer, unassigned) [Example 64, N-(1-(2-cyano-4-fluorophenyl)ethyl)-5-fluoro-2-methoxy-N-methylnicotinamide]",≤ 5
7,"COc1ncc(Cl)cc1C(=O)N(C)C1COc2cc(F)ccc21 (single isomer, unassigned) [Example 45, 5-chloro-N-(6-fluoro-2,3-dihydrobenzofuran-3-yl)-2-methoxy-N-methylnicotinamide]",≤ 5
8,"COc1ncc(F)cc1C(=O)N(C)C(C)c1ccccc1F (single isomer, unassigned) [Example 5, 5-fluoro-N-(1-(2-fluorophenyl)ethyl)-2-methoxy-N-methylnicotinamide]",≤ 0.5
9,"COc1ncc(Cl)cc1C(=O)N(C)Cc1cc(F)cc(Cl)c1 [Example 44, 5-chloro-N-(3-chloro-5-fluorobenzyl)-2-methoxy-N-methylnicotinamide]",≤ 0.2
10,"CC(c1cccc(F)c1)N(C)C(=O)c1cc(Cl)cnc1OC(F)F (single isomer, unassigned) [Example 86, 5-chloro-2-(difluoromethoxy)-N-(1-(3-fluorophenyl)ethyl)-N-methylnicotinamide]",≤ 0.1
11,"COc1ncc(F)cc1C(=O)N(C)C1COc2ccc(F)cc21 (centres unmarked) [Example 35, 5-fluoro-N-(5-fluoro-2,3-dihydrobenzofuran-3-yl)-2-methoxy-N-methylnicotinamide]",≤ 0.5
12,"CN(Cc1cccc(F)c1F)C(=O)c1cc(F)cnc1OC(F)F [Example 93, N-(2,3-difluorobenzyl)-2-(difluoromethoxy)-5-fluoro-N-methylnicotinamide]",≤ 0.1
13,"COc1ncc(Cl)cc1C(=O)N(C)C1CCOc2c(F)cccc21 (single isomer, unassigned) [Example 28, 5-chloro-N-(8-fluorochroman-4-yl)-2-methoxy-N-methylnicotinamide]",≤ 0.5
14,"COc1ncc(Cl)cc1C(=O)N(C)Cc1cccc(F)c1F [Example 40, 5-chloro-N-(2,3-difluorobenzyl)-2-methoxy-N-methylnicotinamide]",≤ 0.2
15,"CN(Cc1cc(F)cc(Cl)c1)C(=O)c1cc(Cl)cnc1OC(F)F [Example 79, 5-chloro-N-(3-chloro-5-fluorobenzyl)-2-(difluoromethoxy)-N-methylnicotinamide]",≤ 0.2
16,"COC(=O)c1ccc(F)cc1CN(C)C(=O)c1cc(F)cnc1OC [Example 56, methyl 4-fluoro-2-((5-fluoro-2-methoxy-N-methylnicotinamido)methyl)benzoate]",≤ 0.5
17,"COc1ncc(Cl)cc1C(=O)N(C)C1CCOc2c(F)cccc21 (single isomer, unassigned) [Example 29, 5-chloro-N-(8-fluorochroman-4-yl)-2-methoxy-N-methylnicotinamide]",≤ 0.5
18,"COc1ncc(Cl)cc1C(=O)N(C)C1CCc2ccccc21 (single isomer, unassigned) [Example 23, 5-chloro-N-(2,3-dihydro-1H-inden-1-yl)-2-methoxy-N-methylnicotinamide]",≤ 0.5
19,"CN(Cc1cc(F)cc(F)c1)S(=O)(=O)c1cc(F)cnc1OC(F)F [Example 103, N-(3,5-difluorobenzyl)-2-(difluoromethoxy)-5-fluoro-N-methylpyridine-3-sulfonamide]",≤ 0.2
